Laboratory results as given in US11760722B2 (priority 2022, dated 2023).

Test system: SARS-CoV-2 Delta USA/MD-HP05647/2021 (Lineage B.1.617.2)
Test: microbe, parasite or virus in culture
Format: cell-based
Conditions: Severe acute respiratory syndrome coronavirus 2, Vero C1008, 4 h; read-out: Vero E6 Delta CPE/EC50

Question: For `CCCc1ccc(S(=O)(=O)N[C@H](C(=O)N2C[C@H]3[C@@H]([C@H]2C(=O)N[C@H](C#N)C[C@@H]2CCNC2=O)C3(C)C)C(C)(C)C)s1` [Compound 171], which EC50 is on record?
Answer: The EC50 was 80.8 nM.
